The source of these data is patent US7855290B2, “Pyridine derivatives and pyrimidine derivatives (3)” (Eisai R&D Management Co., Ltd., priority 2005, dated 2010).

Each structure is given as a SMILES string.

T1 sequence (P08581 956-1390 limits assumed): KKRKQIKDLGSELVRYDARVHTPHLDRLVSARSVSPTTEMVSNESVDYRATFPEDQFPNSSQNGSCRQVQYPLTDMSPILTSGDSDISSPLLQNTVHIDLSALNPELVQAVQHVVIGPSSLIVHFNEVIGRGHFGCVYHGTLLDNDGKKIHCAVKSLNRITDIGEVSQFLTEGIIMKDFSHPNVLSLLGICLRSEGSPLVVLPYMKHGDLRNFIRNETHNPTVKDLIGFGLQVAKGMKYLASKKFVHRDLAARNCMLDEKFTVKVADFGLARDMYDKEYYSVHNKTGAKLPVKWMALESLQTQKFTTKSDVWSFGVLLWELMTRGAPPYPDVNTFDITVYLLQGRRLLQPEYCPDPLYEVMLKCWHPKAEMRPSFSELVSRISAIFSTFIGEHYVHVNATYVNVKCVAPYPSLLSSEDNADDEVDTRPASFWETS

This assay addresses T1, His6-HGFR (HGFR cytoplasmic domain) (Homo sapiens, UniProt P08581).
T1 construct: made in house; host or cells: Sf9 insect cells (Spodoptera frugiperda), baculovirus, pFastBac-HT vector
Nature of the assay: Inhibitory activity against HGFR tyrosine kinase activity (HTRF). Format: biochemical. The settings on record: biotin-poly(GT), ATP, 30° C. 10 min. The essentials:
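Sf9-expressed, Ni-NTA-purified N-terminal His6-tagged HGFR cytoplasmic domain (from Lys974), 30 ng, phosphorylates 250 ng biotin-poly(GT) in Hepes pH 7.4 with MgCl2, MnCl2 and Na3VO4. Reaction started with 4 μM ATP stock, run 10 min at 30° C, stopped with EDTA. Phosphotyrosine is detected by HTRF.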
A word on the IC50: it is the concentration at which inhibition is half-maximal. As to `CN(C)CC1CCN(C(=O)Nc2cc(Oc3ccc(NC(=O)C4(C(=O)Nc5ccc(F)cc5)CC4)cc3F)ccn2)CC1` [Example 5, N-[4-({2-[({4-[(Dimethylamino)methyl]piperidin-1-yl}carbonyl)amino]pyridin-4-yl}oxy)-3-fluorophenyl]-N′-(4-fluorophenyl)cyclopropane-1,1-dicarboxamide], it took 60 nM to reach half-maximal inhibition (IC50).
Next, `O=C(Nc1cc(Oc2ccc(NC(=O)C3(C(=O)Nc4ccc(F)cc4)CC3)cc2F)ccn1)N1CC(CO)C1` [Example 81, N-(3-Fluoro-4-{[2-({[3-(hydroxymethyl)azetidin-1-yl]carbonyl}amino)pyridin-4-yl]oxy}phenyl)-N′-(4-fluorophenyl)cyclopropane-1,1-dicarboxamide]: 19 nM; `O=C(Nc1cc(Oc2ccc(NC(=O)C3(C(=O)Nc4ccc(F)cc4)CC3)c(F)c2)ccn1)N1CCC(O)CC1` [Example 82, N-[2-Fluoro-4-[(2-{[(4-hydroxypiperidin-1-yl)carbonyl]amino}pyridin-4-yl)oxy]phenyl}-N′-(4-fluorophenyl)cyclopropane-1,1-dicarboxamide]: 16 nM.
`O=C(Nc1cc(Oc2ccc(NC(=O)C3(C(=O)Nc4ccc(F)cc4)CC3)c(F)c2)ccn1)N1CCC(CO)CC1` [Example 83, N-(2-Fluoro-4-{[2-({[4-(hydroxymethyl)piperidin-1-yl]carbonyl}amino)pyridin-4-yl]oxy}phenyl)-N′-(4-fluorophenyl)cyclopropane-1,1-dicarboxamide] came in with an IC50 of 17 nM.
Compound `O=C(Nc1cc(Oc2ccc(NC(=O)C3(C(=O)Nc4ccc(F)cc4)CC3)cc2F)ccn1)N1CCC(O)CC1` [Example 84, N-[3-Fluoro-4-[(2-{[(4-hydroxypiperidin-1-yl)carbonyl]amino}pyridin-4-yl)oxy]phenyl}-N′-(4-fluorophenyl)cyclopropane-1,1-dicarboxamide] returned a half-inhibitory concentration (IC50) of 9 nM.
As for `O=C(Nc1cc(Oc2ccc(NC(=O)C3(C(=O)Nc4ccc(F)cc4)CC3)cc2F)ccn1)N1CCC(CO)CC1` [Example 85, N-(3-Fluoro-4-{[2-({[-4-(hydroxymethyl)piperidin-1-yl]carbonyl}amino)pyridin-4-yl]oxy}phenyl)-N′-(4-fluorophenyl)cyclopropane-1,1-dicarboxamide], the figure is 15 nM; as for `O=C(Nc1cc(Oc2ccc(NC(=O)C3(C(=O)Nc4ccc(F)cc4)CC3)cc2F)ccn1)N1CC[C@@H](O)C1` [Example 86, N-(3-Fluoro-4-{[2-({[(3R)-3-hydroxypyrrolidin-1-yl]carbonyl}amino)pyridin-4-yl]oxy}phenyl)-N′-(4-fluorophenyl)cyclopropane-1,1-dicarboxamide], 12 nM.
As for `O=C(Nc1cc(Oc2ccc(NC(=O)C3(C(=O)Nc4ccc(F)cc4)CC3)c(F)c2)ccn1)N1CC[C@@H](O)C1` [Example 87, N-(2-Fluoro-4-{[2-({[(3R)-3-hydroxypyrrolidin-1-yl]carbonyl}amino)pyridin-4-yl]oxy}phenyl)-N′-(4-fluorophenyl)cyclopropane-1,1-dicarboxamide], the figure is 9 nM; as for `O=C(Nc1cc(Oc2ccc(NC(=O)C3(C(=O)Nc4ccc(F)cc4)CC3)cc2F)ccn1)N1CC[C@H](O)C1` [Example 88, N-(3-Fluoro-4-{[2-({[(3S)-3-hydroxypyrrolidin-1-yl]carbonyl}amino)pyridin-4-yl]oxy}phenyl)-N′-(4-fluorophenyl)cyclopropane-1,1-dicarboxamide], 16 nM.
As for `O=C(Nc1cc(Oc2ccc(NC(=O)C3(C(=O)Nc4ccc(F)cc4)CC3)c(F)c2)ccn1)N1CC[C@H](O)C1` [Example 89, N-(2-Fluoro-4-{[2-({[(3S)-3-hydroxypyrrolidin-1-yl]carbonyl}amino)pyridin-4-yl]oxy}phenyl)-N′-(4-fluorophenyl)cyclopropane-1,1-dicarboxamide], the figure is 13 nM; as for `O=C(Nc1cc(Oc2cc(F)c(NC(=O)C3(C(=O)Nc4ccc(F)cc4)CC3)cc2F)ccn1)N1CCC1` [Example 90, N-[4-({2-[(Azetidin-1-ylcarbonyl)amino]pyridin-4-yl}oxy)-2,5-difluorophenyl]-N′-(4-fluorophenyl)cyclopropane-1,1-dicarboxamide], 12 nM.
`CN1CCN(C2CCN(C(=O)Nc3cc(Oc4cc(F)c(NC(=O)C5(C(=O)Nc6ccc(F)cc6)CC5)cc4F)ccn3)CC2)CC1` [Example 92, N-(2,5-Difluoro-4-{[2-({[4-(4-methylpiperazin-1-yl)piperidin-1-yl]carbonyl}amino)pyridin-4-yl]oxy}phenyl)-N′-(4-fluorophenyl)cyclopropane-1,1-dicarboxamide] gave an IC50 of 47 nM.
Next, `CN(C)CC1CN(C(=O)Nc2cc(Oc3cc(F)c(NC(=O)C4(C(=O)Nc5ccc(F)cc5)CC4)cc3F)ccn2)C1` [Example 93, N-[2,5-Difluoro-4-({2-[({3-[(dimethylamino)methyl]azetidin-1-yl]carbonyl)amino]pyridin-4-yl}oxy)phenyl]-N′-(4-fluorophenyl)cyclopropane-1,1-dicarboxamide]: 42 nM; `O=C(Nc1cc(Oc2cc(F)c(NC(=O)C3(C(=O)Nc4ccc(F)cc4)CC3)cc2F)ccn1)N1CC(CN2CCC2)C1` [Example 95, N-{4-[(2-{[3-(Azetidin-1-ylmethyl)azetidin-1-ylcarbonyl]amino}pyridin-4-yl)oxy]-2,5-difluorophenyl}-N′-(4-fluorophenyl)cyclopropane-1,1-dicarboxamide]: 50 nM.
Next, `O=C(Nc1cc(Oc2cc(F)c(NC(=O)C3(C(=O)Nc4ccc(F)cc4)CC3)cc2F)ccn1)N1CC(CO)C1` [Example 96, N-(2,5-Difluoro-4-{[2-({[3-(hydroxymethyl)azetidin-1-yl]carbonyl}amino)pyridin-4-yl]oxy}phenyl)-N′-(4-fluorophenyl)cyclopropane-1,1-dicarboxamide]: 17 nM.
In turn, `O=C(Nc1cc(Oc2cc(F)c(NC(=O)C3(C(=O)Nc4ccc(F)cc4)CC3)cc2F)ncn1)N1CC(O)C1` [Example 97, N-{2,5-Difluoro-4-[(4-{[(3-hydroxyazetidin-1-yl)carbonyl]amino}pyrimidin-6-yl)oxy]phenyl}-N′-(4-fluorophenyl)cyclopropane-1,1-dicarboxamide] had an IC50 of 21 nM.
Next, `CN(C)CC1CN(C(=O)Nc2cc(Oc3cc(F)c(NC(=O)C4(C(=O)Nc5ccc(F)cc5)CC4)cc3F)ncn2)C1` [Example 98, N-[4-({4-[({3-[(Dimethylamino)methyl]azetidin-1-yl}carbonyl)amino]pyrimidin-6-yl}oxy)-2,5-difluorophenyl]-N′-(4-fluorophenyl)cyclopropane-1,1-dicarboxamide]: 67 nM.
